Reference: PubChem BioAssay AID256 (DTP/NCI, 2004)
Values joined by “and” are separate entries in the source; they are usually repeats but may differ in a detail not shown here. Identical values can stand only once. Toxic doses and inconclusive results are not listed. Rule for the calls: active = survival T/C of 150% or more; inactive = T/C below 125% in these data.

Test system: CD2F1 mice, L1210 leukemia ip, survival T/C
Test: NCI In Vivo Anticancer Drug Screen. Data for tumor model L1210 Leukemia (intraperitoneal) in CD2F1 (CDF1) mice
Conditions: endpoint: mean survival time, higher = longer survival
In short: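 Read-out first: treated-group measurement over vehicle-control measurement, expressed as a ratio. Animals bore a transplanted tumor line and were dosed with compound or vehicle.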

[1] = dose: 100.0 mg/kg/injection, schedule: Q01DX001 (ip), vehicle: saline with Tween-80
[2] = dose: 100.0 mg/kg/injection, schedule: Q01DX009 (ip), vehicle: saline with Tween-80
[3] = dose: 200.0 mg/kg/injection, schedule: Q01DX001 (ip), vehicle: saline with Tween-80
[4] = dose: 200.0 mg/kg/injection, schedule: Q01DX009 (ip), vehicle: saline with Tween-80
[5] = dose: 400.0 mg/kg/injection, schedule: Q01DX001 (ip), vehicle: saline with Tween-80
[6] = dose: 400.0 mg/kg/injection, schedule: Q01DX009 (ip), vehicle: saline with Tween-80
[7] = dose: 100.0 mg/kg/injection, schedule: Q04DX003 (ip), vehicle: saline with Tween-80
[8] = dose: 200.0 mg/kg/injection, schedule: Q04DX003 (ip), vehicle: saline with Tween-80
[9] = dose: 100.0 mg/kg/injection, schedule: Q04DX002 (ip), vehicle: saline with Tween-80

Measured: T/C

NP(=O)(OC(c1ccccc1)C12CC3CC(CC(C3)C1)C2)N(CCCl)CCCl (stereo unspecified)
inactive: dose: 62.5 mg/kg/injection, schedule: Q01DX001 (ip), vehicle: other 92 % of control | dose: 125.0 mg/kg/injection, schedule: Q01DX001 (ip), vehicle: other 97 % of control | dose: 250.0 mg/kg/injection, schedule: Q01DX001 (ip), vehicle: other 102 % of control | dose: 500.0 mg/kg/injection, schedule: Q01DX001 (ip), vehicle: other 105 % of control

O=S1C2C3CC(C4C=CCC43)C2N1c1ccccc1 (stereo unspecified)
inactive: [1] 92 % of control | [2] 97 % of control | [3] 95 % of control | [4] 97 % of control | [5] 90 % of control | [6] 94 % of control

CCOC(=O)Nc1cnc2nc[nH]c2c1N(C)C
inactive: dose: 100.0 mg/kg/injection, schedule: Q01DX001 (ip), vehicle: carboxymethylcellulose (CMC) 104 % of control | dose: 200.0 mg/kg/injection, schedule: Q01DX001 (ip), vehicle: carboxymethylcellulose (CMC) 104 % of control | dose: 400.0 mg/kg/injection, schedule: Q01DX001 (ip), vehicle: carboxymethylcellulose (CMC) 124 % of control

CCCCCCCCCCCCCCCC(=O)N(CCCN(C)C)CCCN(CCCN(C)C)C(=O)CCCCCCCCCCCCCCC
inactive: dose: 1.56 mg/kg/injection, schedule: Q01DX009 (ip), vehicle: water 101 % of control | dose: 3.13 mg/kg/injection, schedule: Q01DX009 (ip), vehicle: water 98 % of control | dose: 6.25 mg/kg/injection, schedule: Q01DX009 (ip), vehicle: water 95 % of control | dose: 12.5 mg/kg/injection, schedule: Q01DX009 (ip), vehicle: water 94 % of control and 95 % of control | dose: 25.0 mg/kg/injection, schedule: Q01DX009 (ip), vehicle: water 95 % of control

Cc1c(F)cccc1[N+](=O)[O-]
inactive: dose: 50.0 mg/kg/injection, schedule: Q01DX009 (ip), vehicle: saline with Tween-80 101 % of control | [2] 104 % of control | [4] 98 % of control

CS(=O)(=O)OC(C(Br)CBr)C(OS(C)(=O)=O)C(Br)CBr (stereo unspecified)
inactive: dose: 100.0 mg/kg/injection, schedule: Q01DX001 (ip), vehicle: Klucel (hydroxypropylcellulose) (HPC) 87 % of control | dose: 200.0 mg/kg/injection, schedule: Q01DX001 (ip), vehicle: Klucel (hydroxypropylcellulose) (HPC) 90 % of control | dose: 400.0 mg/kg/injection, schedule: Q01DX001 (ip), vehicle: Klucel (hydroxypropylcellulose) (HPC) 88 % of control

O=C1OC(c2ccc(O)cc2)(c2ccc(O)cc2)c2ccccc21
inactive: [2] 95 % of control | [7] 107 % of control | [4] 91 % of control | [8] 94 % of control | [6] 89 % of control | dose: 400.0 mg/kg/injection, schedule: Q04DX003 (ip), vehicle: saline with Tween-80 93 % of control

O=C(COc1ccccc1)NC(=S)Nc1nccs1
inactive: dose: 25.0 mg/kg/injection, schedule: Q04DX003 (ip), vehicle: saline with Tween-80 87 % of control | dose: 50.0 mg/kg/injection, schedule: Q04DX003 (ip), vehicle: saline with Tween-80 88 % of control and 103 % of control | [1] 97 % of control | [2] 93 % of control and 102 % of control | [9] 98 % of control | [7] 88 % of control and 97 % of control | [3] 95 % of control | [4] 93 % of control and 104 % of control | dose: 200.0 mg/kg/injection, schedule: Q04DX002 (ip), vehicle: saline with Tween-80 102 % of control | [8] 101 % of control and 108 % of control | [5] 107 % of control | [6] 111 % of control

CCCCN(CCCC)CC(O)c1ccccc1 (stereo unspecified)
inactive: [9] 88 % of control

O=[N+]([O-])c1ccccc1-c1nn(-c2ccccc2)c2ccccc12
inactive: dose: 12.5 mg/kg/injection, schedule: Q04DX002 (ip), vehicle: saline with Tween-80 102 % of control | dose: 25.0 mg/kg/injection, schedule: Q04DX002 (ip), vehicle: saline with Tween-80 105 % of control | dose: 50.0 mg/kg/injection, schedule: Q04DX002 (ip), vehicle: saline with Tween-80 90 % of control
